Data published in US6319902A, “Peptide derivatives having thiazolyl-alanine residue” (Shionogi & Co., Ltd., priority 1999, dated 2001).

Experiments:
Assay type in all cases: in vivo
[1] = Change of blood glucose levels after administration of the test compounds to rats; settings: for blood glucose level as a percentage compared to the baseline level (vehicle-treated rats = 100%): 50 μmol/kg intravenously
[2] = test system: Reserpine-induced hypothermia mice; experiment: Anti-reserpine action after intravenous and intracerebroventicular administration of test compounds; settings: for Dose which can increase the average of body temperatures at 1° C. for 180 min in reserpine-induced hypothermia mice, administered intracerebroventicularly: intracerebroventicular, calculated from AUC for 180 min after 0.21 μmol/kg
Method: Anti Recerpine Action After Intravenous and Intracerebroventicular Administration of Test Compounds
Recerpine-induced hypothermia mice (ddY, male) were prepared by the administration of reserpine (3 mg/kg) at 18 hours before test compounds administration. Mice with their body temperature about 25° C. were used in the experiment. Test compounds were solubilized in saline and 0.1 ml (1 μmol/kg) of them were administered intravenously and 0.005 ml (0.21 μmol/kg) of them were administered intracerebroventicularly, respectively. After the administration, rectal temperature was measured at 30, 60, 120, and 180 min. The area under curve (AUC) of the body temperature-time profile was calculated by the general trapezoidal method. In the control experiment, vehicle (saline) was administered to mice intravenously or intracerebroventicularly and the rectal temperature was measured by the same protocol. The effective dose, which can increase the average of body temperatures at 1° C. for 180 min in reserpine-induced hypothermia mice after intravenous or intracerebroventicular administration of the test compounds, is calculated by the following equation: [formula]
Effective dose: Dose which can increase the average of body temperatures at 1° C. for 180 min in reserpine-induced hypothermia mice.
AUC (test compounds): The area under curve (AUC) of the body temperature-time profile for 180 min after intravenous or intracerebroventicular administration of test, compounds was calculated by the general trapezoidal method.
AUC (vehicle): The area under curve (AUC) of the body temperature-time profile for 180 min after intravenous or intracerebroventicular administration of saline was calculated by the general trapezoidal method.

[3] = test system: Reserpine-induced hypothermia mice; experiment: Anti-reserpine action after oral administration of test compounds; settings: calculated from AUC of body temperature-time profile for 420 min after 10 μmol/kg
Method: Anti-recerpine Action After Oral Administration of Test Compounds
Reserpine-induced hypothemia mice (ddY, male, body weight: 30 to 40 g) were prepared by the subcutaneous administration of reserpine in back side of the […] (3 mg/kg) at 18 hours before test compounds administration. Mice with their body temperature about 25° C. were used in the experiment. Test compounds were solubilized in saline and 0.2 ml (10 μmol/kg) of them were administered by sonde for oral administration. After the administration, rectal temperature was measured at, 30, 60, 120, 180, 240, 300, and […]. The area under curve (AUC) of the body temperature-time profile was calculated by the general trapezoidal method. In the control experiment, vehicle (saline) was administered to mice and the rectal temperature was measured by the same protocol. The effective dose, which can increase the average of body temperature at 1° C. for 420 min in reserpine-induced hypothermia mice after oral administration of the test compounds, is calculated by the following equation: [formula]
Effective dose: Dose which can increase the average of body temperatures at 1° C. for 420 min in reserpine-induced hypothermia mice.
AUC (test compounds): The area under curve (AUC) of the body temperature-time profile for 420 min after oral administration of test compounds was calculated by the general trapezoidal method. […]

| blood glucose level as a percentage compared to the baseline level (vehicle-treated rats = 100%) ([1]; Time 0 min) | blood glucose level as a percentage compared to the baseline level (vehicle-treated rats = 100%) ([1]; Time 5 min) | blood glucose level as a percentage compared to the baseline level (vehicle-treated rats = 100%) ([1]; Time 15 min) | blood glucose level as a percentage compared to the baseline level (vehicle-treated rats = 100%) ([1]; Time 30 min) | blood glucose level as a percentage compared to the baseline level (vehicle-treated rats = 100%) ([1]; Time 60 min) | blood glucose level as a percentage compared to the baseline level (vehicle-treated rats = 100%) ([1]; Time 120 min) | blood glucose level as a percentage compared to the baseline level (vehicle-treated rats = 100%) ([1]; Time 180 min) | blood glucose level as a percentage compared to the baseline level (vehicle-treated rats = 100%) ([1]; Time 240 min) | blood glucose level as a percentage compared to the baseline level (vehicle-treated rats = 100%) ([1]; Time 300 min) | blood glucose level as a percentage compared to the baseline level (vehicle-treated rats = 100%) ([1]; Time 360 min) | blood glucose level as a percentage compared to the baseline level (vehicle-treated rats = 100%) ([1]; Time 420 min) | blood glucose level as a percentage compared to the baseline level (vehicle-treated rats = 100%) ([1]; Time 480 min) | SMILES | Dose which can increase the average of body temperatures at 1° C. for 180 min in reserpine-induced hypothermia mice, administered intracerebroventicularly [2] | acute rise of the blood glucose level and fall by the rebound after administration ([1]; result in words) | Dose which can increase the average of body temperatures at 1° C. for 420 min in reserpine-induced hypothermia mice by oral [3] | Dose which can increase the average of body temperatures at 1° C. for 180 min in reserpine-induced hypothermia mice, administered intravenously ([2]; intravenous, calculated from AUC for 180 min after 1 μmol/kg) |
| --- | --- | --- | --- | --- | --- | --- | --- | --- | --- | --- | --- | --- | --- | --- | --- | --- |
| 107.7% | 119.9% | 104.3% | 109.1% | 112.1% | 126.5% | 105.3% | 110.9% | 104.0% | 100.4% | 102.6% | 111.8% | C[C@H]1OC(=O)N[C@H]1C(=O)N[C@@H](Cc1cscn1)C(=O)N1CCC[C@H]1C(N)=O (mixture of isomers) [Compound I-10, cis-L-5-methyl-2-oxo-oxazolidine-4-yl-carbonyl-3-(4-thiazolyl)-L-alanyl-L-prolineamide] | 0.025 µmol/kg |  |  |  |
| 116.3% | 114.6% | 123.3% | 137.9% | 153.5% | 139.1% | 119.1% | 112.6% | 113.2% | 103.5% | 102.6% | 97.1% | NC(=O)[C@@H]1CCCN1C(=O)[C@H](Cc1cnc[nH]1)NC(=O)[C@@H]1CCC(=O)N1 [TRH, L-pyroglutamyl-L-histidyl-L-prolineamide] | 0.033 µmol/kg | acutely raises up the blood glucose level | 42.68 µmol/kg | 9.84 µmol/kg |
